Measured values: US12123028B2, “Viral inactivation methods for continuous manufacturing of antibodies” (Bayer HealthCare LLC, priority 2018, dated 2024)
“Also recorded” adds a separate entry of the source.

What was measured:
X-MuLV = X-MuLV inactivation by detergent in neutralized mAb protein A eluate, remaining infectivity by TCID50 assay on PG-4 cells; assay type: cell-based, Xenotropic Murine Leukemia Virus; conditions: 16° C.
Method: The pH of various protein A eluates was adjusted to 7.0 with 1M Tris buffer. The pH adjusted eluate was then filtered through a 0.22 um filter. Various volumes of 5% stock solution of Mega-10, Tween 20, or Tween 80 were added to the filtered neutralized protein A eluates. This was done to prepare protein A eluates containing various concentrations of each detergent. X-MuLV was then spiked at a 1:20 ratio to the neutralized protein A eluate containing various concentrations of each detergent that had been pre-incubated at a 16° C. water bath prior to the virus spiking. After a thorough mixing, an aliquot of a sample was removed immediately and quenched with a diluent (McCoy's medium containing 3 μg/mL of polybrene) at 1:12 for Mega-10 or at 1:100 for Tween 20 and Tween 80 to stop the inactivation, and the sample was designated as a time-zero sample. The remaining spiked eluate was returned to the water bath and the samples were collected at the indicated time to evaluate the viral inactivation kinetics.
The remaining X-MuLV infectivity in the samples post-inactivation treatment was determined by a TCID50 assay that is an endpoint dilution assay to quantify the amount of virus required to produce a cytopathic effect in 50% of inoculated tissue culture cells. Virus titers were estimated using the Spearman-Karber method and reported as TCID50/mL with a calculated 95% confidence interval (CI). Briefly, a sufficient number of 96-well plates with PG-4 (feline S^+L^−, ATCC#CRL-2032) cells were prepared the day before starting the viral inactivation experiments and incubated overnight in a 37° C. humidified CO2 incubator. A set of ten 3.2 fold dilution of the diluted positive control (1:100) and viral inactivated samples were prepared in a dilution block. Each set of the 11 serial dilutions of the samples were inoculated correspondingly onto wells (100 μL per well) of the first 11 columns in a 96-well plate that had been pre-seeded with PG-4 cells. The 12th column in the same plate was inoculated with the corresponding diluent to serve as non-virus negative control. The positive control was prepared by spiking the filtered neutralized protein A eluate with X-MuLV at a 1:20 ratio. The inoculated plates were then incubated in a 37° C. humidified CO2 incubator for approximate 2 hours. A volume of 100 uL of 2× assay medium (92% McCoy's 5A medium, 4% FBS, 2% Penicillin/Streptomycin, 2% L-Glutamine) was added to each well of the plates at the end of incubation. The plates were then returned to the same incubator, and continued incubation for 6 days. Each well of the plates were scored under a microscope for the presence of cytopathic effect (CPE) and the results were recorded in a scoring sheet. Virus titers were then estimated using the Spearman-Karber method and reported as TCID50/mL with a calculated 95% confidence interval (CI).
To evaluate robustness of X-MuLV inactivation by Mega-10 in Protein A eluates of mAb1, X-MuLV was spiked at a 1:20 ratio into the neutralized mAb1 protein A eluate contain 0.1%, 0.2% and 0.3% of Mega-10. After a thorough mixing, an aliquot of sample was removed at 0, 2.5, 5, 10, and 30 minutes after incubation at 16° C. The remaining virus titer in the collected samples was determined by the TCID50 assay.

aquatic environment = conditions: cited from earlier work
[1] = 0.1% Mega-10, neutralized mAb1 protein A eluate pH 7.01, incubation 0 minutes
[2] = 0.1% Mega-10, neutralized mAb1 protein A eluate pH 7.01, incubation 2.5 minutes
[3] = 0.1% Mega-10, neutralized mAb1 protein A eluate pH 7.01, incubation 5.0 minutes
[4] = 0.1% Mega-10, neutralized mAb1 protein A eluate pH 7.01, incubation 10 minutes
[5] = 0.1% Mega-10, neutralized mAb1 protein A eluate pH 7.01, incubation 30 minutes
[6] = 0.1% Mega-10, neutralized mAb2 protein A eluate pH 7.01, incubation 0 minutes
[7] = 0.1% Mega-10, neutralized mAb2 protein A eluate pH 7.01, incubation 2.5 minutes
[8] = 0.1% Mega-10, neutralized mAb2 protein A eluate pH 7.01, incubation 5.0 minutes
[9] = 0.1% Mega-10, neutralized mAb2 protein A eluate pH 7.01, incubation 10 minutes
[10] = 0.1% Mega-10, neutralized mAb2 protein A eluate pH 7.01, incubation 30 minutes
[11] = 0.2% Mega-10, neutralized mAb1 protein A eluate pH 7.01, incubation 0 minutes
[12] = 0.2% Mega-10, neutralized mAb1 protein A eluate pH 7.01, incubation 5.0 minutes
[13] = 0.2% Mega-10, neutralized mAb1 protein A eluate pH 7.01, incubation 10 minutes
[14] = 0.2% Mega-10, neutralized mAb1 protein A eluate pH 7.01, incubation 30 minutes
[15] = 0.2% Mega-10, neutralized mAb2 protein A eluate pH 7.01, incubation 0 minutes
[16] = 0.2% Mega-10, neutralized mAb2 protein A eluate pH 7.01, incubation 2.5 minutes
[17] = 0.2% Mega-10, neutralized mAb2 protein A eluate pH 7.01, incubation 5.0 minutes
[18] = 0.2% Mega-10, neutralized mAb2 protein A eluate pH 7.01, incubation 10 minutes
[19] = 0.3% Mega-10, neutralized mAb1 protein A eluate pH 7.01, incubation 0 minutes
[20] = 0.3% Mega-10, neutralized mAb1 protein A eluate pH 7.01, incubation 5.0 minutes
[21] = 0.3% Mega-10, neutralized mAb1 protein A eluate pH 7.01, incubation 10 minutes
[22] = 0.3% Mega-10, neutralized mAb1 protein A eluate pH 7.01, incubation 30 minutes
[23] = 0.3% Mega-10, neutralized mAb2 protein A eluate pH 7.01, incubation 0 minutes
[24] = 0.3% Mega-10, neutralized mAb2 protein A eluate pH 7.01, incubation 5.0 minutes
[25] = 0.3% Mega-10, neutralized mAb2 protein A eluate pH 7.01, incubation 10 minutes
[26] = 0.3% Mega-10, neutralized mAb2 protein A eluate pH 7.01, incubation 30 minutes

CCCCCCCCCC(=O)N(C)C[C@H](O)[C@@H](O)[C@H](O)[C@H](O)CO [Mega-10, N-Methylglucamide]
LRF ± 95% CL (X-MuLV; 0.10% Mega 10 alone, neutralized mAb1 protein A eluate, 0 minutes (Table 2)): 0.33 ± 0.35
LRF ± 95% CL (X-MuLV; 0.10% Mega 10 alone, neutralized mAb1 protein A eluate, 2.5 minutes (Table 2)): 0.33±0.29
LRF ± 95% CL (X-MuLV; 0.10% Mega 10 alone, neutralized mAb1 protein A eluate, 2.5 minutes (Table 2), listed as Mega 10): 0.33 ± 0.29
LRF ± 95% CL (X-MuLV; 0.10% Mega 10 alone, neutralized mAb1 protein A eluate, 5 minutes (Table 2)): 0.33 ± 0.32
LRF ± 95% CL (X-MuLV; 0.10% Mega 10 alone, neutralized mAb1 protein A eluate, 10 minutes (Table 2)): 0.39 ± 0.36
LRF ± 95% CL (X-MuLV; 0.10% Mega 10 alone, neutralized mAb1 protein A eluate, 30 minutes (Table 2)): 0.64 ± 0.33
LRF ± 95% CL (X-MuLV; [1]): 0.26 ± 0.28
Log10 TCID50/mL (X-MuLV; [1]): 6.53 ± 0.20 Log10 TCID50/mL
LRF ± 95% CL (X-MuLV; [2]): 0.38 ± 0.32
Log10 TCID50/mL (X-MuLV; [2]): 6.41 ± 0.26 Log10 TCID50/mL
LRF ± 95% CL (X-MuLV; [3]): 0.38 ± 0.28
Log10 TCID50/mL (X-MuLV; [3]): 6.41 ± 0.21 Log10 TCID50/mL
LRF ± 95% CL (X-MuLV; [4]): 0.38 ± 0.28
Log10 TCID50/mL (X-MuLV; [4]): 6.41 ± 0.20 Log10 TCID50/mL
LRF ± 95% CL (X-MuLV; [5]): 0.38 ± 0.23
Log10 TCID50/mL (X-MuLV; [5]): 6.41 ± 0.12 Log10 TCID50/mL
LRF ± 95% CL (X-MuLV; [6]): 0.36 ± 0.28
Log10 TCID50/mL (X-MuLV; [6]): 6.56 ± 0.22 Log10 TCID50/mL
LRF ± 95% CL (X-MuLV; [7]): 0.36 ± 0.28
Log10 TCID50/mL (X-MuLV; [7]): 6.56 ± 0.22 Log10 TCID50/mL
LRF ± 95% CL (X-MuLV; [8]): 0.36 ± 0.25
Log10 TCID50/mL (X-MuLV; [8]): 6.56 ± 0.18 Log10 TCID50/mL
LRF ± 95% CL (X-MuLV; [9]): 0.29 ± 0.26
Log10 TCID50/mL (X-MuLV; [9]): 6.63 ± 0.19 Log10 TCID50/mL
LRF ± 95% CL (X-MuLV; [10]): 0.36 ± 0.28
Log10 TCID50/mL (X-MuLV; [10]): 6.56 ± 0.22 Log10 TCID50/mL
LRF ± 95% CL (X-MuLV; 0.15% Mega 10 alone, neutralized mAb2 protein A eluate, 0 minutes (Table 3)): 0.99 ± 0.30
LRF ± 95% CL (X-MuLV; 0.15% Mega 10 alone, neutralized mAb2 protein A eluate, 2.5 minutes (Table 3)): 1.62 ± 0.30
LRF ± 95% CL (X-MuLV; 0.15% Mega 10 alone, neutralized mAb2 protein A eluate, 5 minutes (Table 3)): 1.68±0.31
LRF ± 95% CL (X-MuLV; 0.15% Mega 10 alone, neutralized mAb2 protein A eluate, 5 minutes (Table 3), listed as Mega 10): 1.68 ± 0.31
LRF ± 95% CL (X-MuLV; 0.15% Mega 10 alone, neutralized mAb2 protein A eluate, 10 minutes (Table 3)): 1.94 ± 0.32
LRF ± 95% CL (X-MuLV; 0.15% Mega 10 alone, neutralized mAb2 protein A eluate, 30 minutes (Table 3)): 1.94 ± 0.32
LRF ± 95% CL (X-MuLV; [11]): 2.91 ± 0.32
Log10 TCID50/mL (X-MuLV; [11]): 3.88 ± 0.25 Log10 TCID50/mL
Log10 TCID50/mL (X-MuLV; 0.2% Mega-10, neutralized mAb1 protein A eluate pH 7.01, incubation 2.5 minutes): ≤1.21 Log10 TCID50/mL
LRF ± 95% CL (X-MuLV; [12]): ≥5.58 ± 0.19
Log10 TCID50/mL (X-MuLV; [12]): ≤1.21 Log10 TCID50/mL
LRF ± 95% CL (X-MuLV; [13]): ≥5.58 ± 0.19
Log10 TCID50/mL (X-MuLV; [13]): ≤1.21 Log10 TCID50/mL
LRF ± 95% CL (X-MuLV; [14]): ≥5.58 ± 0.19
Log10 TCID50/mL (X-MuLV; [14]): ≤1.21 Log10 TCID50/mL
treatment time to inactivate X-MuLV to the level below the detection limit (X-MuLV; 0.2% Mega-10, neutralized mAb1 protein A eluate): 2.5 min
LRF ± 95% CL (X-MuLV; [15]): 4.73 ± 0.46
Log10 TCID50/mL (X-MuLV; [15]): 2.19 ± 0.43 Log10 TCID50/mL
LRF ± 95% CL (X-MuLV; [16]): 5.31±0.75
Log10 TCID50/mL (X-MuLV; [16]): 1.61 ± 0.73 Log10 TCID50/mL
LRF ± 95% CL (X-MuLV; [17]): 5.31 ± 0.75
Log10 TCID50/mL (X-MuLV; [17]): 1.61 ± 0.73 Log10 TCID50/mL
LRF ± 95% CL (X-MuLV; [18]): 5.50 ± 0.90
Log10 TCID50/mL (X-MuLV; [18]): 1.42 ± 0.88 Log10 TCID50/mL
Log10 TCID50/mL (X-MuLV; 0.2% Mega-10, neutralized mAb2 protein A eluate pH 7.01, incubation 30 minutes): ≤1.11 ± 0.27 Log10 TCID50/mL
LRF ± 95% CL (X-MuLV; [19]): 3.79 ± 0.33
Log10 TCID50/mL (X-MuLV; [19]): 3.00 ± 0.27 Log10 TCID50/mL
Log10 TCID50/mL (X-MuLV; 0.3% Mega-10, neutralized mAb1 protein A eluate pH 7.01, incubation 2.5 minutes): ≤1.21 Log10 TCID50/mL
LRF ± 95% CL (X-MuLV; [20]): ≥5.58 ± 0.19
Log10 TCID50/mL (X-MuLV; [20]): ≤1.21 Log10 TCID50/mL
LRF ± 95% CL (X-MuLV; [21]): ≥5.58 ± 0.19
Log10 TCID50/mL (X-MuLV; [21]): ≤1.21 Log10 TCID50/mL
LRF ± 95% CL (X-MuLV; [22]): ≥5.58 ± 0.19
Log10 TCID50/mL (X-MuLV; [22]): ≤1.21 Log10 TCID50/mL
treatment time to inactivate X-MuLV to the level below the detection limit (X-MuLV; 0.3% Mega-10, neutralized mAb1 protein A eluate): 2.5 min
LRF ± 95% CL (X-MuLV; [23]): 4.73 ± 0.46
Log10 TCID50/mL (X-MuLV; [23]): 2.19 ± 0.43 Log10 TCID50/mL
Log10 TCID50/mL (X-MuLV; 0.3% Mega-10, neutralized mAb2 protein A eluate pH 7.01, incubation 2.5 minutes): ≤1.11 Log10 TCID50/mL
LRF ± 95% CL (X-MuLV; [24]): ≥5.81 ± 0.18
Log10 TCID50/mL (X-MuLV; [24]): ≤1.11 Log10 TCID50/mL
LRF ± 95% CL (X-MuLV; [25]): ≥5.81 ± 0.18
Log10 TCID50/mL (X-MuLV; [25]): ≤1.11 Log10 TCID50/mL
LRF ± 95% CL (X-MuLV; [26]): ≥5.81 ± 0.18
Log10 TCID50/mL (X-MuLV; [26]): ≤1.11 Log10 TCID50/mL
treatment time to inactivate X-MuLV to the level below detection (X-MuLV; 0.3% Mega-10, neutralized mAb2 protein A eluate): 2.5 min
toxicity to the aquatic environment (aquatic environment): without toxicity to the aquatic environment; also recorded: no toxicity to the aquatic environment
